Experimental data: US20240181006A1, “POLYPEPTIDES BINDING ADAMTS5, MMP13 AND AGGRECAN” (Merck Patent GmbH, priority 2017, published 2024)

Tests used:
[1] = test system: human cartilage explants; assay: human cartilage explant assay, IL-1β + OSM, GAG release; type: cell-based; settings: reference set at 100%, FIG. 4
Protocol: FIG. 4: Efficacy of polypeptide 949 in a human cartilage explant assay.
Polypeptide 949 (M-A-C-C: 62C02-2F03-114F08-114F08) was tested in human cartilage explant assays for inhibition of cartilage degradation. Briefly, the polypeptide was incubated with human cartilage explants that were cultured 7 days with IL-1β+Oncostatin M (OSM). Within 7 days, degradation of primarily Aggrecan ensues, whereas Collagen degradation only occurs after about two weeks, i.e., after termination of the experiments described here. At the end of the experiment, the GAG (mainly derived from Aggrecan) which was released from the degrading cartilage into the culture supernatant was quantified. The IC50 was calculated on the basis of the negative control level (=GAG release from explants without additional stimulus) and the IL-1 β+OSM level, as measure for maximal GAG loss. GAG is shown as GAG release (in μg) per mg cartilage of each individual explant.

[2] = test system: bovine cartilage explants; assay: bovine cartilage explant assay, IL-1α, GAG release (polypeptide 949); type: cell-based; settings: 5 days with IL-1α, FIG. 3
Protocol: FIG. 3: Efficacy of polypeptide 949 (“NB949”) in bovine cartilage explant assay.
In short, the polypeptide was incubated with bovine cartilage explants that were cultured 5 days with IL-1α to induce an OA-like cartilage degradation process. Within 5 days, degradation of primarily Aggrecan ensues, whereas Collagen degradation only occurs after about two weeks, i.e., after termination of the experiments described here. At the end of the experiment, the GAG (mainly derived from Aggrecan) which was released from the degrading cartilage into the culture supernatant was quantified.

For `CC(C)(Cc1ccc(F)cc1)NC(=O)[C@H](CCC(=O)O)NC(=O)c1ccc(-c2ccccc2)cc1` [AGG-523], the “inhibition of stimulated GAG release in human cartilage explant assay” value [1] was “fully inhibits” and the “inhibition of bovine cartilage degradation (IL-1α stimulated GAG release)” value [2] was “fully inhibits”.
